According to ChEMBL document CHEMBL6078630, “Design, synthesis, and bioactivity investigation of novel cyclic lipopeptide antibiotics targeting top-priority multidrug-resistant gram-negative bacteria” (Eur J Med Chem, 2024):
≈ marks a conversion by molar mass, not a printed value. Bridge positions count the residues as written; N and C are the ends. Square brackets hold non-standard residues; d marks the D form. Peptide text beside a SMILES is read from it. * marks the point of attachment. Heptanoyl(6-Me) = CC(C)CCCCC(=O)*; Octanoyl(6-Me) = CCC(C)CCCCC(=O)*; dOrn = NCCC[C@@H](N)C(=O)O; dDap = NC[C@@H](N)C(=O)O; Dab = NCC[C@H](N)C(=O)O; Dap = NC[C@H](N)C(=O)O

Tests used:
[1] = Acute toxicity in iv dosed Swiss mouse assessed as maximum tolerated dose measured after 24 hrs; assay type: organism-based; conditions: in vivo
[2] = test system: Pseudomonas aeruginosa; assay: Antibacterial activity against carbapenem-resistant Pseudomonas aeruginosa clinical isolate ets84 assessed as inhibition of bacterial growth incubated for 24 hrs by CLSI protocol based broth microdilution method; assay type: functional
[3] = test system: Klebsiella pneumoniae; assay: Antibacterial activity against carbapenem-resistant Klebsiella pneumoniae clinical isolate ets74 assessed as inhibition of bacterial growth incubated for 24 hrs by CLSI protocol based broth microdilution method; assay type: functional
[4] = test system: Acinetobacter baumannii; assay: Antibacterial activity against carbapenem-sensitive Acinetobacter baumannii clinical isolate 19-1 assessed as inhibition of bacterial growth incubated for 16 to 20 hrs by CLSI protocol based broth microdilution method; assay type: functional; conditions: time 16-20 hrs
[5] = test system: Escherichia coli; assay: Antibacterial activity against carbapenem-resistant Escherichia coli ATCC BAA-2340 assessed as inhibition of bacterial growth incubated for 16 to 20 hrs by CLSI protocol based broth microdilution method; assay type: functional; conditions: time 16-20 hrs
[6] = test system: Acinetobacter baumannii; assay: Antibacterial activity against carbapenem-resistant Acinetobacter baumannii clinical isolate ets178 assessed as inhibition of bacterial growth incubated for 24 hrs by CLSI protocol based broth microdilution method; assay type: functional
[7] = test system: Klebsiella pneumoniae; assay: Antibacterial activity against carbapenem-resistant Klebsiella pneumoniae clinical isolate ets45 assessed as inhibition of bacterial growth incubated for 24 hrs by CLSI protocol based broth microdilution method; assay type: functional
[8] = test system: Klebsiella pneumoniae; assay: Antibacterial activity against carbapenem-resistant Klebsiella pneumoniae clinical isolate KPN+19-15 assessed as inhibition of bacterial growth incubated for 16 to 20 hrs by CLSI protocol based broth microdilution method; assay type: functional; conditions: time 16-20 hrs
[9] = test system: Escherichia coli; assay: Antibacterial activity against carbapenem-resistant Escherichia coli clinical isolate 231016w014 assessed as inhibition of bacterial growth incubated for 24 hrs by CLSI protocol based broth microdilution method; assay type: functional
[10] = test system: Klebsiella pneumoniae; assay: Antibacterial activity against carbapenem-resistant Klebsiella pneumoniae clinical isolate ets78 assessed as inhibition of bacterial growth incubated for 24 hrs by CLSI protocol based broth microdilution method; assay type: functional
[11] = test system: Acinetobacter baumannii; assay: Antibacterial activity against carbapenem-resistant Acinetobacter baumannii clinical isolate ets104 assessed as inhibition of bacterial growth incubated for 24 hrs by CLSI protocol based broth microdilution method; assay type: functional
[12] = test system: Pseudomonas aeruginosa; assay: Antibacterial activity against carbapenem-resistant Pseudomonas aeruginosa clinical isolate ets55 assessed as inhibition of bacterial growth incubated for 24 hrs by CLSI protocol based broth microdilution method; assay type: functional
[13] = test system: Klebsiella pneumoniae; assay: Antibacterial activity against carbapenem-resistant Klebsiella pneumoniae clinical isolate ets77 assessed as inhibition of bacterial growth incubated for 24 hrs by CLSI protocol based broth microdilution method; assay type: functional
[14] = test system: Pseudomonas aeruginosa; assay: Antibacterial activity against Pseudomonas aeruginosa ATCC 27853 assessed as inhibition of bacterial growth incubated for 16 to 20 hrs by CLSI protocol based broth microdilution method; assay type: functional; conditions: time 16-20 hrs
[15] = test system: Klebsiella pneumoniae; assay: Antibacterial activity against carbapenem-resistant Klebsiella pneumoniae clinical isolate ets80 assessed as inhibition of bacterial growth incubated for 24 hrs by CLSI protocol based broth microdilution method; assay type: functional
[16] = test system: Klebsiella pneumoniae; assay: Antibacterial activity against carbapenem-resistant Klebsiella pneumoniae clinical isolate ets40 assessed as inhibition of bacterial growth incubated for 24 hrs by CLSI protocol based broth microdilution method; assay type: functional
[17] = test system: Escherichia coli; assay: Antibacterial activity against carbapenem-resistant Escherichia coli clinical isolate 231112E006B assessed as inhibition of bacterial growth incubated for 24 hrs by CLSI protocol based broth microdilution method; assay type: functional
[18] = test system: Pseudomonas aeruginosa; assay: Antibacterial activity against carbapenem-resistant Pseudomonas aeruginosa clinical isolate ets5 assessed as inhibition of bacterial growth incubated for 24 hrs by CLSI protocol based broth microdilution method; assay type: functional
[19] = test system: Pseudomonas aeruginosa; assay: Antibacterial activity against carbapenem-resistant Pseudomonas aeruginosa clinical isolate ets6 assessed as inhibition of bacterial growth incubated for 24 hrs by CLSI protocol based broth microdilution method; assay type: functional
[20] = test system: Klebsiella pneumoniae; assay: Antibacterial activity against carbapenem-resistant Klebsiella pneumoniae clinical isolate ets26 assessed as inhibition of bacterial growth incubated for 24 hrs by CLSI protocol based broth microdilution method; assay type: functional
[21] = test system: Pseudomonas aeruginosa; assay: Antibacterial activity against carbapenem-resistant Pseudomonas aeruginosa clinical isolate ets38 assessed as inhibition of bacterial growth incubated for 24 hrs by CLSI protocol based broth microdilution method; assay type: functional
[22] = test system: Acinetobacter baumannii; assay: Antibacterial activity against carbapenem-resistant Acinetobacter baumannii clinical isolate ets171 assessed as inhibition of bacterial growth incubated for 24 hrs by CLSI protocol based broth microdilution method; assay type: functional
[23] = test system: Pseudomonas aeruginosa; assay: Antibacterial activity against carbapenem-resistant Pseudomonas aeruginosa clinical isolate ets83 assessed as inhibition of bacterial growth incubated for 24 hrs by CLSI protocol based broth microdilution method; assay type: functional
[24] = test system: Pseudomonas aeruginosa; assay: Antibacterial activity against carbapenem-resistant Pseudomonas aeruginosa clinical isolate ets15 assessed as inhibition of bacterial growth incubated for 24 hrs by CLSI protocol based broth microdilution method; assay type: functional
[25] = test system: Pseudomonas aeruginosa; assay: Antibacterial activity against carbapenem-resistant Pseudomonas aeruginosa clinical isolate ets85 assessed as inhibition of bacterial growth incubated for 24 hrs by CLSI protocol based broth microdilution method; assay type: functional
[26] = test system: Pseudomonas aeruginosa; assay: Antibacterial activity against carbapenem-resistant Pseudomonas aeruginosa clinical isolate 19-3 assessed as inhibition of bacterial growth incubated for 16 to 20 hrs by CLSI protocol based broth microdilution method; assay type: functional; conditions: time 16-20 hrs
[27] = test system: Acinetobacter baumannii; assay: Antibacterial activity against carbapenem-resistant Acinetobacter baumannii clinical isolate ets30 assessed as inhibition of bacterial growth incubated for 24 hrs by CLSI protocol based broth microdilution method; assay type: functional
[28] = test system: Pseudomonas aeruginosa; assay: Antibacterial activity against carbapenem-resistant Pseudomonas aeruginosa clinical isolate ets22 assessed as inhibition of bacterial growth incubated for 24 hrs by CLSI protocol based broth microdilution method; assay type: functional
[29] = test system: Pseudomonas aeruginosa; assay: Antibacterial activity against carbapenem-resistant Pseudomonas aeruginosa clinical isolate ets33 assessed as inhibition of bacterial growth incubated for 24 hrs by CLSI protocol based broth microdilution method; assay type: functional
[30] = test system: Pseudomonas aeruginosa; assay: Antibacterial activity against carbapenem-resistant Pseudomonas aeruginosa clinical isolate ets49 assessed as inhibition of bacterial growth incubated for 24 hrs by CLSI protocol based broth microdilution method; assay type: functional
[31] = test system: Escherichia coli; assay: Antibacterial activity against Escherichia coli ATCC BAA-2523 assessed as inhibition of bacterial growth incubated for 16 to 20 hrs by CLSI protocol based broth microdilution method; assay type: functional; conditions: time 16-20 hrs
[32] = Renal cytotoxicity against HK-2 cells incubated for 72 hrs by CCK8 assay; assay type: toxicity, cell-based; conditions: human
[33] = test system: Acinetobacter baumannii; assay: Antibacterial activity against carbapenem-resistant Acinetobacter baumannii clinical isolate ets123 assessed as inhibition of bacterial growth incubated for 24 hrs by CLSI protocol based broth microdilution method; assay type: functional
[34] = test system: Klebsiella pneumoniae; assay: Antibacterial activity against carbapenem-resistant Klebsiella pneumoniae ATCC BAA-1705 assessed as inhibition of bacterial growth incubated for 16 to 20 hrs by CLSI protocol based broth microdilution method; assay type: functional; conditions: time 16-20 hrs
[35] = test system: Escherichia coli; assay: Antibacterial activity against carbapenem-resistant Escherichia coli clinical isolate 231109W005 assessed as inhibition of bacterial growth incubated for 24 hrs by CLSI protocol based broth microdilution method; assay type: functional
[36] = test system: Klebsiella pneumoniae; assay: Antibacterial activity against carbapenem-resistant Klebsiella pneumoniae clinical isolate ets75 assessed as inhibition of bacterial growth incubated for 24 hrs by CLSI protocol based broth microdilution method; assay type: functional
[37] = test system: Acinetobacter baumannii; assay: Antibacterial activity against Acinetobacter baumannii NCTC 13304 (OXA-27) assessed as inhibition of bacterial growth incubated for 16 to 20 hrs by CLSI protocol based broth microdilution method; assay type: functional; conditions: time 16-20 hrs
[38] = test system: Pseudomonas aeruginosa; assay: Antibacterial activity against carbapenem-resistant Pseudomonas aeruginosa clinical isolate ets104 assessed as inhibition of bacterial growth incubated for 24 hrs by CLSI protocol based broth microdilution method; assay type: functional

CCC(C)CCCCC(=O)N[C@@H](CCN)C(=O)N[C@H](C(=O)N[C@@H](CCN)C(=O)N[C@H]1CCNC(=O)[C@H]([C@@H](C)O)NC(=O)[C@H](CCN)NC(=O)[C@H](CCN)NC(=O)[C@H](CC(C)C)NC(=O)[C@@H](CC(C)C)NC(=O)[C@H](CCN)NC1=O)[C@@H](C)O (stereo partly drawn) ({Octanoyl(6-Me)}-[Dab]T[Dab][Dab][Dab][dL]L[Dab][Dab]T; lactam 4-C)
MTD at 24 h [1]: 5.3 mg/kg

CC(C)CCCCC(=O)N[C@@H](CCN)C(=O)N[C@H](C(=O)N[C@H](CN)C(=O)N[C@H]1CCNC(=O)[C@H]([C@@H](C)O)NC(=O)[C@H](CCN)NC(=O)[C@H](CCN)NC(=O)[C@H]([C@@H](C)O)NC(=O)[C@@H](Cc2ccccc2)NC(=O)[C@H](CCN)NC1=O)[C@@H](C)O ({Heptanoyl(6-Me)}-[Dab]T[dDap][Dab][Dab][dF]T[Dab][Dab]T; lactam 4-C)
MIC [2]: 2 µg/mL (≈ 1.72 µM) | MIC [3]: 0.5 µg/mL (≈ 0.43 µM) | MIC [4]: ≤ 0.03 µg/mL | MIC [5]: ≤ 0.03 µg/mL | MIC [6]: 1 µg/mL (≈ 0.86 µM) | MIC [7]: 0.25 µg/mL (≈ 0.215 µM) | MIC [8]: ≤ 0.03 µg/mL | MIC [9]: < 0.06 µg/mL | MIC [10]: 0.25 µg/mL (≈ 0.215 µM) | MIC [11]: 0.06 µg/mL (≈ 0.0516 µM) | MIC [12]: 1 µg/mL (≈ 0.86 µM) | MIC [13]: 0.5 µg/mL (≈ 0.43 µM) | MIC [14]: ≤ 0.03 µg/mL | MIC [15]: 0.5 µg/mL (≈ 0.43 µM) | MIC [16]: 0.125 µg/mL (≈ 0.107 µM) | MIC [17]: < 0.06 µg/mL | MIC [18]: 1 µg/mL (≈ 0.86 µM) | MIC [19]: 0.5 µg/mL (≈ 0.43 µM) | MIC [20]: 0.5 µg/mL (≈ 0.43 µM) | MIC [21]: 0.5 µg/mL (≈ 0.43 µM) | MIC [22]: 0.5 µg/mL (≈ 0.43 µM) | MIC [23]: 0.5 µg/mL (≈ 0.43 µM) | MIC [24]: 1 µg/mL (≈ 0.86 µM) | MIC [25]: 0.5 µg/mL (≈ 0.43 µM) | MIC [26]: 0.125 µg/mL (≈ 0.107 µM) | MIC [27]: 2 µg/mL (≈ 1.72 µM) | MIC [28]: 2 µg/mL (≈ 1.72 µM) | MIC [29]: 4 µg/mL (≈ 3.44 µM) | MIC [30]: < 0.06 µg/mL | MIC [31]: ≤ 0.03 µg/mL | IC50 at 72 h [32]: > 500 µg/mL | MIC [33]: 2 µg/mL (≈ 1.72 µM) | MIC [34]: ≤ 0.03 µg/mL | MIC [35]: < 0.06 µg/mL | MIC [36]: 0.5 µg/mL (≈ 0.43 µM) | MIC [37]: ≤ 0.03 µg/mL | MIC [38]: 1 µg/mL (≈ 0.86 µM)

CC(C)CCCCC(=O)N[C@@H](CCN)C(=O)N[C@H](C(=O)N[C@H](CCCN)C(=O)N[C@H]1CCNC(=O)[C@H]([C@@H](C)O)NC(=O)[C@H](CCN)NC(=O)[C@H](CCN)NC(=O)[C@H]([C@@H](C)O)NC(=O)[C@@H](Cc2ccccc2)NC(=O)[C@H](CCN)NC1=O)[C@@H](C)O ({Heptanoyl(6-Me)}-[Dab]T[dOrn][Dab][Dab][dF]T[Dab][Dab]T; lactam 4-C)
MIC [4]: 0.125 µg/mL (≈ 0.105 µM) | MIC [5]: ≤ 0.03 µg/mL | MIC [8]: 0.125 µg/mL (≈ 0.105 µM) | MIC [14]: 0.25 µg/mL (≈ 0.21 µM) | MIC [26]: 1 µg/mL (≈ 0.839 µM) | MIC [31]: ≤ 0.03 µg/mL | IC50 at 72 h [32]: > 500 µg/mL | MIC [34]: 0.06 µg/mL (≈ 0.0504 µM) | MIC [37]: 0.06 µg/mL (≈ 0.0504 µM)

CC(C)CCCCC(=O)N[C@@H](CCN)C(=O)N[C@H](C(=O)N[C@H](CO)C(=O)N[C@H]1CCNC(=O)[C@H]([C@@H](C)O)NC(=O)[C@H](CCN)NC(=O)[C@H](CCN)NC(=O)[C@H]([C@@H](C)O)NC(=O)[C@@H](Cc2ccccc2)NC(=O)[C@H](CN)NC1=O)[C@@H](C)O ({Heptanoyl(6-Me)}-[Dab]T[dS][Dab][Dap][dF]T[Dab][Dab]T; lactam 4-C)
MIC [4]: 0.25 µg/mL (≈ 0.217 µM) | MIC [5]: 0.06 µg/mL (≈ 0.0522 µM) | MIC [8]: 0.06 µg/mL (≈ 0.0522 µM) | MIC [14]: > 64 µg/mL | MIC [26]: 64 µg/mL (≈ 55.6 µM) | MIC [31]: 0.06 µg/mL (≈ 0.0522 µM) | IC50 at 72 h [32]: > 500 µg/mL | MIC [34]: 0.25 µg/mL (≈ 0.217 µM) | MIC [37]: 0.25 µg/mL (≈ 0.217 µM)
